ChEMBL document CHEMBL1201862, “PubChem BioAssay data set” (2004)
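Values below derive from 48-hour exposures of cells grown in 96-well plates, with endpoints linearly interpolated between the two concentrations bracketing the appropriate inhibition level. Here, GI50 denotes the concentration required for 50% inhibition of growth.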 Calls of active or inactive are those of the source. No stated cut-off is given here; in the data, active = GI50 up to about 1.1 µM and inactive = higher.

Key:
Assay in all cases: DTP human tumour cell line panel, 48 h
SNB-75 = test system: SNB-75
MCF7 = test system: MCF7
SF-539 = test system: SF-539
SNB-19 = test system: SNB-19
OVCAR-8 = test system: OVCAR-8
OVCAR-4 = test system: OVCAR-4
A498 = test system: A498
NCI-H226 = test system: NCI-H226
A549 = test system: A549
OVCAR-3 = test system: OVCAR-3
CCRF-CEM = test system: CCRF-CEM
Hs-578T = test system: Hs-578T
SK-MEL-28 = test system: SK-MEL-28
KM12 = test system: KM12
HL-60 = test system: HL-60
K562 = test system: K562
SN12C = test system: SN12C
RPMI-8226 = test system: RPMI-8226
NCI-H522 = test system: NCI-H522
SK-OV-3 = test system: SK-OV-3
SF-295 = test system: SF-295
MDA-MB-435 = test system: MDA-MB-435
SF-268 = test system: SF-268
MOLT-4 = test system: MOLT-4
HCT-15 = test system: HCT-15
Malme-3M = test system: Malme-3M
HOP-92 = test system: HOP-92
SR = test system: SR
NCI-H460 = test system: NCI-H460
M14 = test system: M14
T47D = test system: T47D
CAKI-1 = test system: CAKI-1
UACC-62 = test system: UACC-62
ACHN = test system: ACHN
MDA-N = test system: MDA-N
TK-10 = test system: TK-10
DU-145 = test system: DU-145
HT-29 = test system: HT-29
NCI-H23 = test system: NCI-H23
SW-620 = test system: SW-620
EKVX = test system: EKVX
LOX IMVI = test system: LOX IMVI
IGROV-1 = test system: IGROV-1
HOP-62 = test system: HOP-62
MDA-MB-231 = test system: MDA-MB-231
U-251 = test system: U-251
PC-3 = test system: PC-3
HCT-116 = test system: HCT-116
786-0 = test system: 786-0
COLO 205 = test system: COLO 205
RXF 393 = test system: RXF 393
UO-31 = test system: UO-31
SK-MEL-2 = test system: SK-MEL-2
UACC-257 = test system: UACC-257
BT-549 = test system: BT-549
SK-MEL-5 = test system: SK-MEL-5
HCC 2998 = test system: HCC 2998
NCI/ADR-RES = test system: NCI/ADR-RES
OVCAR-5 = test system: OVCAR-5

SMILES: CC1=CC[C@@]2(C)[C@@H]([C@@H]1C)[C@H]1CC[C@@H]3[C@@]4(C)CC[C@H](O)C(C)(C)[C@@H]4CC[C@@]3(C)[C@]1(C)C[C@@H]2O
- GI50 (SNB-75): 30.3 µM (inactive)
- GI50 (MCF7): 35.2 µM (inactive)
- GI50 (SF-539): 27 µM (inactive)
- GI50 (SNB-19): 37.8 µM (inactive)
- GI50 (OVCAR-8): 14.1 µM (inactive)
- GI50 (OVCAR-4): 24.3 µM (inactive)
- GI50 (A498): > 20.7 µM (inactive)
- GI50 (NCI-H226): 27.2 µM (inactive)
- GI50 (A549): 12.6 µM (inactive)
- GI50 (OVCAR-3): 18.9 µM (inactive)
- GI50 (CCRF-CEM): 5.38 µM (inactive)
- GI50 (Hs-578T): 37 µM (inactive)
- GI50 (SK-MEL-28): 6.44 µM (inactive)
- GI50 (KM12): 23.3 µM (inactive)
- GI50 (HL-60): 50.1 µM (inactive)
- GI50 (K562): 4.2 µM (inactive)
- GI50 (SN12C): 6.61 µM (inactive)
- GI50 (RPMI-8226): 9.23 µM (inactive)
- GI50 (NCI-H522): 2.52 µM (inactive)
- GI50 (SK-OV-3): > 44.7 µM (inactive)
- GI50 (SF-295): 13.2 µM (inactive)
- GI50 (MDA-MB-435): 20.2 µM (inactive)
- GI50 (SF-268): 9.79 µM (inactive)
- GI50 (MOLT-4): 13.9 µM (inactive)
- GI50 (HCT-15): 26.1 µM
- GI50 (Malme-3M): 30.4 µM (inactive)
- GI50 (HOP-92): 25.6 µM (inactive)
- GI50 (SR): 3.46 µM (inactive)
- GI50 (NCI-H460): 19.1 µM (inactive)
- GI50 (M14): 6.52 µM (inactive)
- GI50 (T47D): 23 µM (inactive)
- GI50 (CAKI-1): 37.2 µM (inactive)
- GI50 (UACC-62): > 45.8 µM (inactive)
- GI50 (ACHN): 9.62 µM (inactive)
- GI50 (MDA-N): 32.4 µM (inactive)
- GI50 (TK-10): > 39.5 µM (inactive)
- GI50 (DU-145): 8 µM (inactive)
- GI50 (HT-29): 11.6 µM (inactive)
- GI50 (NCI-H23): 25.6 µM (inactive)
- GI50 (SW-620): 33.6 µM (inactive)
- GI50 (EKVX): 5.61 µM (inactive)
- GI50 (LOX IMVI): 5.53 µM (inactive)
- GI50 (IGROV-1): 17.1 µM (inactive)
- GI50 (HOP-62): 13.5 µM (inactive)
- GI50 (MDA-MB-231): 8.2 µM (inactive)
- GI50 (U-251): 7.94 µM (inactive)
- GI50 (PC-3): 18.6 µM (inactive)
- GI50 (HCT-116): 22.2 µM (inactive)
- GI50 (786-0): 12.4 µM (inactive)
- GI50 (COLO 205): 15 µM (inactive)
- GI50 (RXF 393): 10.4 µM (inactive)
- GI50 (UO-31): > 100 µM (inactive)
- GI50 (SK-MEL-2): 24.8 µM (inactive)
- GI50 (UACC-257): 17.4 µM (inactive)
- GI50 (BT-549): 29.1 µM (inactive)
- GI50 (SK-MEL-5): 13.7 µM (inactive)
- GI50 (HCC 2998): 17.7 µM (inactive)
- GI50 (NCI/ADR-RES): 21.8 µM (inactive)
- GI50 (OVCAR-5): > 50.8 µM (inactive)

SMILES: c1ccc(-c2cc3[nH]c4ccccc4[nH]c-3cc(-c3ccccc3)nn2)cc1
- GI50 (SNB-75): 30.4 µM (inactive)
- GI50 (MCF7): 51.3 µM (inactive)
- GI50 (SF-539): 39.6 µM (inactive)
- GI50 (SNB-19): 41.6 µM (inactive)
- GI50 (OVCAR-8): 54.2 µM (inactive)
- GI50 (OVCAR-4): 56.2 µM (inactive)
- GI50 (A498): 22.8 µM (inactive)
- GI50 (NCI-H226): 45.6 µM (inactive)
- GI50 (A549): 40.4 µM (inactive)
- GI50 (OVCAR-3): 22.7 µM (inactive)
- GI50 (CCRF-CEM): 49.3 µM (inactive)
- GI50 (Hs-578T): 66.4 µM (inactive)
- GI50 (SK-MEL-28): > 100 µM (inactive)
- GI50 (KM12): 46.9 µM (inactive)
- GI50 (HL-60): 20.6 µM (inactive)
- GI50 (K562): > 100 µM (inactive)
- GI50 (SN12C): > 100 µM (inactive)
- GI50 (RPMI-8226): 88.1 µM (inactive)
- GI50 (NCI-H522): 71 µM (inactive)
- GI50 (SK-OV-3): 17.7 µM (inactive)
- GI50 (SF-295): 24.4 µM (inactive)
- GI50 (MDA-MB-435): 64.3 µM (inactive)
- GI50 (SF-268): 53 µM (inactive)
- GI50 (MOLT-4): > 100 µM (inactive)
- GI50 (HCT-15): 87.7 µM
- GI50 (Malme-3M): 62.4 µM (inactive)
- GI50 (HOP-92): > 100 µM (inactive)
- GI50 (SR): 96.2 µM (inactive)
- GI50 (NCI-H460): 30 µM (inactive)
- GI50 (M14): > 100 µM (inactive)
- GI50 (T47D): > 100 µM (inactive)
- GI50 (CAKI-1): 91.8 µM (inactive)
- GI50 (UACC-62): > 100 µM (inactive)
- GI50 (ACHN): 24.9 µM (inactive)
- GI50 (MDA-N): > 100 µM (inactive)
- GI50 (TK-10): 22.9 µM (inactive)
- GI50 (DU-145): 52.7 µM (inactive)
- GI50 (HT-29): 50.9 µM (inactive)
- GI50 (NCI-H23): > 100 µM (inactive)
- GI50 (SW-620): 81.7 µM (inactive)
- GI50 (EKVX): > 100 µM (inactive)
- GI50 (LOX IMVI): 72.3 µM (inactive)
- GI50 (IGROV-1): 32.1 µM (inactive)
- GI50 (HOP-62): 26.3 µM (inactive)
- GI50 (MDA-MB-231): 80 µM (inactive)
- GI50 (U-251): 55.6 µM (inactive)
- GI50 (PC-3): 55.1 µM (inactive)
- GI50 (HCT-116): 33.6 µM (inactive)
- GI50 (786-0): 29.2 µM (inactive)
- GI50 (COLO 205): > 100 µM (inactive)
- GI50 (RXF 393): 76.9 µM (inactive)
- GI50 (UO-31): 21.3 µM (inactive)
- GI50 (SK-MEL-2): > 100 µM (inactive)
- GI50 (UACC-257): > 100 µM (inactive)
- GI50 (BT-549): > 100 µM (inactive)
- GI50 (SK-MEL-5): 74.6 µM (inactive)
- GI50 (HCC 2998): 40 µM (inactive)
- GI50 (NCI/ADR-RES): > 100 µM (inactive)
- GI50 (OVCAR-5): > 100 µM (inactive)
